Values of other authors as cited in patent US20240207266A1, “METHODS FOR TREATING AND MONITORING PARKINSON'S DISEASE” (Denali Therapeutics Inc., priority 2021, published 2024).

Test system: di-22:6-BMP
Conditions: monkeys; Fuji 2015, Baptista 2020; cited from earlier work

CNc1nc(Nc2cn(C(C)(C)C#N)nc2C)ncc1C(F)(F)F [GNE-0877]
urine di-22:6-BMP: decreased

CCNc1nc(Nc2cc(F)c(C(=O)N3CCOCC3)cc2OC)ncc1C(F)(F)F [GNE-7915]
urine di-22:6-BMP: decreased
